Data from patent publication US9873724B2, “Pro-angiogenic peptides and peptide conjugates” (Yissum Research Development Company of the Hebrew …, priority 2013, dated 2018).
Several values for one entry are separate records, joined by “and”; a condition that tells them apart may be missing. Equal values may be shown once. Square brackets hold non-standard residues; d marks the D form. * marks the point of attachment. Myristoyl = CCCCCCCCCCCCCC(=O)*; Nle = CCCC[C@H](N)C(=O)O

What was measured:
[1] = tested on: Mice/Balb/c, hind limb ischemia model; assay: Mouse hind limb ischemia/angiogenesis model; type: in vivo
Text: The object of this study was to determine whether administration of the test items, peptides AB-017 (SEQ ID NO: 12) and 725-106 (positive control, SEQ ID NO: 2) can enhance angiogenesis, subsequently inducing clinical and motor function improvement in a hind limb ischemia model. The principle of the test is based on changes in perfusion rate, clinical signs and histological parameters (necrosis) following administration of the test compounds.
Each tested group included 4-7 mice per group. Intraperitoneal (i.p) injection is the preferred route of administration of the test items in this model and DMSO/PEG is used as vehicle to prepare the test item solution.
Tested peptides were dissolved in 100% DMSO. Thereafter Polyethylene glycol (PEG) 400 is added to the solution. Sterile water was used to dilute to a final concentration of 0.5% DMSO/10% PEG 400/H2O to result 2 mg/ml. The solution is prepared and divided into marked aliquots and stored at −70° C.
Species/Strain: Mice/Balb/c male˜8 weeks
Animals were housed under standard laboratory conditions, air conditioned and filtered (HEPA F6/6) with adequate fresh air supply (31 air changes/hour). Animals were kept in a climate controlled environment. Temperatures range is between 20-24° C. and RH is between 30-70% with 12 hours light and 12 hours dark cycle. Animals were housed in polyethylene cages (7/cage) measuring 35×30×15 cm, with stainless steel top grill facilitating pelleted food and drinking water in plastic bottle; bedding: steam sterilized clean paddy husk. Bedding material is changed along with the cage at least twice a week. Diet: Animals are fed ad libitum a commercial rodent diet (Teklad Certified Global 18% Protein Diet cat #: 106S8216). Animals have free access to drinking water obtained from the municipality supply. Surgical Procedure: Anesthesia: Isoflurane 1.5-3% in a mixture of O2/N2O, under spontaneous respiration. All four limbs of the animal were taped down in order to facilitate the animal for surgery. Both hind legs of the animals are shaved and disinfected. On the operated leg, the right leg in all animals, an incision was made from the inguinal area to the proximity of the knee. The femoral vein/artery/nerve were exposed. The artery is dissected free from the vein, nerve and surrounding fascia. Distal to its bifurcation with the profound femoral artery, using 6-0 silk suture the artery is ligated twice, and thereafter transected between these two points (see prox-A-group model appendix I). The surgical wound is closed with 6-0 silk and the mouse is returned to its cage. The left leg is untreated control in all animals. Exclusion criteria: Only mice, whose mean flux measurement post surgery is […] and ≦50% of the pre surgical measurement, are incorporated into the study. Mice whose mean flux measurement post surgery out of this range were excluded from the study.
[formula] Drug administration: All animals were dosed by IP administration at a dose volume of 10 ml/kg.
Tests and Evaluation: Body weight: Body weights were measured prior to surgery, prior to each dosing, and prior to necropsy. Blood flow measurement: Using a Laser Doppler apparatus (Perimed PeriScan PIM II System, Technical manual available at test facility) Blood flow was measured (operated leg & control leg) while the legs are in their natural resting position at the following time points: Before surgery (after shaving) & Post surgery (Day 0); Day 1; Day 8; Day 15; Day 22; and Day 29. Each time point for each mouse consists of three measurements. Blood flow was measured, additionally, in first 10 animals at Pre before shaving. […]

[2] = tested on: C57BL mice, polymicrobial septic mouse model; assay: In-vivo septic shock model (cecum ligation and puncture); conditions: 20 mg/Kg s.c. once a day for 5 days; FIG. 5
Description: The polymicrobial septic mouse model of severe sepsis (Belikoff et al. The Journal of Immunology, 2011, 186: 2444-2453), was induced in wild-type (WT) C57BL mice using cecum ligation and puncture (CLP) approach. In summary, mice were anesthetized, a 1.5-cm, longitudinal incision in the lower right quadrant of the abdomen was performed and the cecum was exposed. The distal two third of the cecum was ligated with 4-0 silk suture and punctured doubly with an 18-gauge needle. The cecum was then replaced into the peritoneal cavity and the incision was closed with surgical staples. After that, the mice were resuscitated with sterile saline injected subcutaneously and allowed free access to food and water after awaking.
Following this procedure, mice were then injected s.c. once a day, for 5 days, with either vehicle or with 20 mg/Kg of GPS-725.017 (SEQ ID NO: 12).

## Myr-Gly-Nle-Arg-Pro-Tyr-NH2 (Myristoyl-G[Nle]RPY-NH2; SMILES CCCCCCCCCCCCCC(=O)NCC(=O)N[C@@H](CCCC)C(=O)N[C@@H](CCCNC(=N)N)C(=O)N1CCC[C@H]1C(=O)N[C@@H](Cc1ccc(O)cc1)C(N)=O) [AB-017]
[1]; 20 mg/kg IP twice weekly for 4 weeks, vs vehicle control and 725-106
  perfusion, leg function and leg necrosis (in words): significant improvement of the ischemic leg
[1]; 20 mg/kg IP twice weekly, function score 0 (flexing the toes) to 3 (dragging of foot), one value per mouse, listed as AB-107
  Functional evaluation at day 15 (individual mouse): 3.0 (2×) and 2.0 and 0.0 (4×)
[1]; 20 mg/kg IP twice weekly, group average of ischemic score
  Hind limb ischemia evaluation at day 15, Average: 0.7
[1]; 20 mg/kg IP twice weekly, ischemic score 0 (absence of necrosis) to 4 (total hind-limb loss), one value per mouse, listed as AB-107
  Hind limb ischemia evaluation at day 15 (individual mouse): 2.0 (2×) and 0.0 (4×) and 1.0
[2]
  rescue from death in septic-shock model: rescue mice from death
